pIC50: −log10 of the molar value.
biological target: T1, recombinant human GST-SYK (Homo sapiens, UniProt P43405); test: Homogeneous Time-Resolved Fluorescence (HTRF) assay for the recombinant human Syk enzyme; format: biochemical; conditions: HTRF assay, recombinant human GST-SYK; IC50 given as class symbols; read-out: rhSYK Activity
T1 construct: purchased Carna Biosciences 08-176
Method in brief: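 GST-hSYK ([…]) was preincubated with inhibitor (0.1% DMSO) for 10 min at room temperature in Tris-HCl pH 7.5 with tween 20 and DTT. Biotinylated peptide (250 nM), Mg (5 mM) and ATP (25 μM) were added for 45 min. The reaction was quenched with EDTA, and phosphotyrosine was read by Eu-antibody/SA-APC HTRF after 30 min.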

Row | pIC50 | Structure (SMILES)
1 | > 7.00 | Cc1cc(Nc2nccc(C(F)(F)F)n2)cc(-c2ccc([C@]3(O)CC[C@@](C)(C(=O)O)CC3)nc2)c1 [Example 9.11, cis-4-hydroxy-1-methyl-4-[5-(3-methyl-5-{[4-(trifluoromethyl)pyrimidin-2-yl]amino}phenyl)pyridin-2-yl]cyclohexanecarboxylic acid]
2 | > 7.00 | CC1(C(=O)O)CCC(O)(c2ccc(-c3cc(Nc4nccc(C(F)(F)F)n4)cc(C(F)F)c3)cn2)CC1 (stereo not drawn) [Example 9.12, cis-4-{5-[3-(difluoromethyl)-5-{[4-(trifluoromethyl)pyrimidin-2-yl]amino}phenyl]pyridin-2-yl}-4-hydroxy-1-methylcyclohexanecarboxylic acid]
3 | > 7.00 | Cc1cc(Nc2nccc(C(F)(F)F)n2)cc(-c2ccc(C3(O)CCCC(C(=O)O)C3)nc2)c1 (stereo not drawn) [Example 9.21, 3-hydroxy-3-[5-(3-methyl-5-{[4-(trifluoromethyl)pyrimidin-2-yl]amino}phenyl)pyridin-2-yl]cyclohexanecarboxylic acid]
4 | > 7.00 | Cc1cc(Nc2nccc(C(F)(F)F)n2)cc(-c2ccc(C3(O)CCC(C(=O)O)C3(C)C)nc2)c1 (stereo not drawn) [Example 9.22, 3-hydroxy-2,2-dimethyl-3-[5-(3-methyl-5-{[4-(trifluoromethyl)pyrimidin-2-yl]amino}phenyl)pyridin-2-yl]cyclopentanecarboxylic acid]
5 | 6.00 to 7.00 | Cc1cc(Nc2nccc(C(F)(F)F)n2)cc(-c2ccc(C3(O)COC(C)(C)OC3)nc2)c1 [Example 9.32, 2,2-dimethyl-5-[5-(3-methyl-5-{[4-(trifluoromethyl)pyrimidin-2-yl]amino}phenyl)pyridin-2-yl]-1,3-dioxan-5-ol]
6 | > 7.00 | Cc1cc(Nc2nccc(C(F)(F)F)n2)cc(-c2ccc([C@]3(O)CC[C@@H](C(=O)O)CC3)nc2)c1 [Example 9.34, cis-4-hydroxy-4-[5-(3-methyl-5-{[4-(trifluoromethyl)pyrimidin-2-yl]amino}phenyl)pyridin-2-yl]cyclohexanecarboxylic acid]

Continued, compound first:

Row | Structure (SMILES) | pIC50
7 | Cc1cc(Nc2nccc(C(F)(F)F)n2)cc(-c2cncc(C3(O)CCNCC3)c2)c1 [Example 9.7, 4-[5-(3-Methyl-5-{[4-(trifluoromethyl)pyrimidin-2-yl]amino}phenyl)pyridin-3-yl]piperidin-4-ol] | > 7.00
8 | Cc1cc(Nc2nccc(C(F)(F)F)n2)cc(-c2ccc(C(C)(O)c3ccc(C(=O)O)cc3)nc2)c1 (stereo not drawn) [Example 9.20, 4-{1-hydroxy-1-[5-(3-methyl-5-{[4-(trifluoromethyl)pyrimidin-2-yl]amino}phenyl)pyridin-2-yl]ethyl}benzoic acid] | > 7.00
9 | Cc1cc(Nc2nccc(C)n2)cc(-c2ccc(C(C)(O)[C@H]3CC[C@H](C(=O)O)CC3)nc2)c1 (stereo partly drawn) [Example 9.23, trans-4-[1-hydroxy-1-(5-{3-methyl-5-[(4-methylpyrimidin-2-yl)amino]phenyl}pyridin-2-yl)ethyl]cyclohexanecarboxylic acid] | > 7.00
10 | Cc1cc(Nc2nccc(C3CC3)n2)cc(-c2ccc(C(C)(O)[C@H]3CC[C@H](C(=O)O)CC3)nc2)c1 (stereo partly drawn) [Example 9.24, trans-4-[1-(5-{3-[(4-cyclopropylpyrimidin-2-yl)amino]-5-methylphenyl}pyridin-2-yl)-1-hydroxyethyl]cyclohexanecarboxylic acid] | > 7.00
11 | COc1ccnc(Nc2cc(C)cc(-c3ccc(C(C)(O)[C@H]4CC[C@H](C(=O)O)CC4)nc3)c2)n1 (stereo partly drawn) [Example 9.25, trans-4-[1-hydroxy-1-(5-{3-[(4-methoxypyrimidin-2-yl)amino]-5-methylphenyl}pyridin-2-yl)ethyl]cyclohexanecarboxylic acid] | > 7.00
12 | Cc1cc(Nc2nccc(C(F)(F)F)n2)cc(-c2ccc(C(O)(CO)CO)nc2)c1 [Example 9.33, 2-[5-(3-methyl-5-{[4-(trifluoromethyl)pyrimidin-2-yl]amino}phenyl)pyridin-2-yl]propane-1,2,3-triol] | > 7.00

— patent publication US9376418B2, “Substituted pyridine spleen tyrosine kinase (SYK) inhibitors” (Merck Sharp & Dohme Corp., priority 2012, dated 2016)
